# Results reported in patent publication US6620831B2, “Indazoles substituted with 1,1-dioxoisothiazolidine useful as inhibitors of cell proliferation” (LG Life Sciences Ltd., priority 2000, dated 2003).
# Target: T1, CDK2/cyclin A (Homo sapiens, UniProt P24941)
# T1 construct: made in house; host or cells: insect ('worm') cells co-infected with baculoviruses
# Test: CDK2 inhibitory activity (CDK2/cyclin A, [gamma-32P] ATP, histon H1 or Rb protein substrate)
# Assay type: biochemical
# Conditions: first IC50 column (c1) of Table 1
# From the text: CDK2 enzyme was obtained from either extract from the worm cell co-infected with baculovirus which expresses a CDK2 gene and baculovirus which expresses a cyclin A gene, or active enzyme purified therefrom. CDK4 was also obtained from either extract from the worm cell co-infected with baculovirus which expresses a CDK4 gene and baculovirus which expresses a cyclin D1 gene. As substrates, histon H1 or Rb protein was used for CDK2, and Rb protein for CDK4. The radioactive activities in substrates were determined by reacting compounds diluted with each concentration with a proper quantity of CDK2/cyclin A or CDK4/cyclin D1 and substrate protein, and [gamma-32P labeled] ATP, and then separating the substrates.
# Inhibitory abilities of inhibitors according to the present invention for each enzyme activity were expressed as IC50 values, which were determined in accordance with the method as described above.
row,IC50 [nM],SMILES
1,< 50,"O=C(Cc1ccccc1)Nc1n[nH]c2ccc(N3CCCS3(=O)=O)cc12 [Compound 1, N-[5-(1,1-dioxo-1λ^6-isothiazolidin-2-yl)-1H-indazol-3-yl]-2-phenylacetamide]"
2,< 50,"O=C(Cc1cccc(Cl)c1)Nc1n[nH]c2ccc(N3CCCS3(=O)=O)cc12 [Compound 2, 2-(3-chlorophenyl)-N-[5-(1,1-dioxo-1λ^6-isothiazolidin-2-yl)-1H-indazol-3-yl]acetamide]"
3,< 100,"O=C(Cc1ccc(OCc2ccccc2)cc1)Nc1n[nH]c2ccc(N3CCCS3(=O)=O)cc12 [Compound 3, 2-[4-(benzyloxy)phenyl]-N-[5-(1,1-dioxo-1λ^6-isothiazolidin-2-yl)-1H-indazol-3-yl]acetamide]"
4,< 50,"O=C(Cc1ccc(O)cc1)Nc1n[nH]c2ccc(N3CCCS3(=O)=O)cc12 [Compound 4, N-[5-(1,1-dioxo-1λ^6-isothiazolidin-2-yl)-1H-indazol-3-yl]-2-(4-hydroxyphenyl)acetamide]"
5,< 500,"O=C(Cc1ccc(N(Cc2ccccc2)Cc2ccccc2)cc1)Nc1n[nH]c2ccc(N3CCCS3(=O)=O)cc12 [Compound 5, 2-[4-(dibenzylamino)phenyl]-N-[5-(1,1-dioxo-1λ^6-isothiazolidin-2-yl)-1H-indazol-3-yl]acetamide]"
6,< 50,"CNc1ccc(CC(=O)Nc2n[nH]c3ccc(N4CCCS4(=O)=O)cc23)cc1 [Compound 6, N-[5-(1,1-dioxo-1λ^6-isothiazolidin-2-yl)-1H-indazol-3-yl]-2-[4-(methylamino)phenyl]acetamide]"
7,< 50,"Nc1ccc(CC(=O)Nc2n[nH]c3ccc(N4CCCS4(=O)=O)cc23)cc1 [Compound 7, 2-(4-aminophenyl)-N-[5-(1,1-dioxo-1λ^6-isothiazolidin-2-yl)-1H-indazol-3-yl]acetamide]"
8,< 50,"O=C(Cc1ccc(Cl)cc1)Nc1n[nH]c2ccc(N3CCCS3(=O)=O)cc12 [Compound 8, 2-(4-chlorophenyl)-N-[5-(1,1-dioxo-1λ^6-isothiazolidin-2-yl)-1H-indazol-3-yl]acetamide]"
9,< 50,"O=C(Cc1ccc(F)cc1)Nc1n[nH]c2ccc(N3CCCS3(=O)=O)cc12 [Compound 9, N-[5-(1,1-dioxo-1λ^6-isothiazolidin-2-yl)-1H-indazol-3-yl]-2-(4-fluorophenyl)acetamide]"
10,< 50,"O=C(Cc1ccc(-c2ccccc2)cc1)Nc1n[nH]c2ccc(N3CCCS3(=O)=O)cc12 [Compound 10, 2-[1,1′-biphenyl]-4-yl-N-[5-(1,1-dioxo-1λ^6-isothiazolidin-2-yl)-1H-indazol-3-yl]acetamide]"
11,< 50,"O=C(Cc1cccc(Br)c1)Nc1n[nH]c2ccc(N3CCCS3(=O)=O)cc12 [Compound 11, 2-(3-bromophenyl)-N-[5-(1,1-dioxo-1λ^6-isothiazolidin-2-yl)-1H-indazol-3-yl]acetamide]"
12,< 50,"O=C(Cc1ccc(Br)cc1)Nc1n[nH]c2ccc(N3CCCS3(=O)=O)cc12 [Compound 12, 2-(4-bromophenyl)-N-[5-(1,1-dioxo-1λ^6-isothiazolidin-2-yl)-1H-indazol-3-yl]acetamide]"
13,< 10000,"O=S1(=O)CCCN1c1ccc2[nH]nc(NC(=S)Cc3ccccc3)c2c1 [Compound 13, N-[5-(1,1-dioxo-1λ^6-isothiazolidin-2-yl)-1H-indazol-3-yl]-2-phenylethanethioamide]"
14,< 10000,"O=S1(=O)CCCN1c1ccc2[nH]nc(NC(Cc3ccccc3)=NO)c2c1 [Compound 14, N-[5-(1,1-dioxo-1λ^6-isothiazolidin-2-yl)-1H-indazol-3-yl]-N′-hydroxy-2-phenylethaneimidoamide]"
15,< 50,"O=C(Cc1ccc2c(c1)OCO2)Nc1n[nH]c2ccc(N3CCCS3(=O)=O)cc12 [Compound 15, 2-(1,3-benzodioxol-5-yl)-N-[5-(1,1-dioxo-1λ^6-isothiazolidin-2-yl)-1H-indazole-3-yl]acetamide]"
16,< 50,"O=C(Cc1cccc2ccccc12)Nc1n[nH]c2ccc(N3CCCS3(=O)=O)cc12 [Compound 16, N-[5-(1,1-dioxo-1λ^6-isothiazolidin-2-yl)-1H-indazol-3-yl]-2-(1-naphthyl)acetamide]"
17,< 50,"O=C(Cc1ccc2ccccc2c1)Nc1n[nH]c2ccc(N3CCCS3(=O)=O)cc12 [Compound 17, N-[5-(1,1-dioxo-1λ^6-isothiazolidin-2-yl)-1H-indazol-3-yl]-2-(2-naphthyl)acetamide]"
18,< 50,"O=C(Cc1cccc([N+](=O)[O-])c1)Nc1n[nH]c2ccc(N3CCCS3(=O)=O)cc12 [Compound 18, N-[5-(1,1-dioxo-1λ^6-isothiazolidin-2-yl)-1H-indazol-3-yl]-2-(3-nitrophenyl)acetamide]"
19,> 100000,"CC(=O)Nc1n[nH]c2ccc(N3CCCS3(=O)=O)cc12 [Compound 19, N-[5-(1,1-dioxo-1λ^6-isothiazolidin-2-yl)-1H-indazol-3-yl]acetamide]"

row,IC50 [nM],SMILES
1,< 50,"CSc1ccc(CC(=O)Nc2n[nH]c3ccc(N4CCCS4(=O)=O)cc23)cc1 [Compound 20, N-[5-(1,1-dioxo-1λ^6-isothiazolidin-2-yl)-1H-indazol-3-yl]-2-[4-(methylsulfanil)phenyl]acetamide]"
2,< 50,"Nc1cccc(CC(=O)Nc2n[nH]c3ccc(N4CCCS4(=O)=O)cc23)c1 [Compound 21, 2-(3-aminophenyl)-N-[5-(1,1-dioxo-1λ^6-isothiazolidin-2-yl)-1H-indazol-3-yl]acetamide]"
3,< 50000,"CC(=S)Nc1n[nH]c2ccc(N3CCCS3(=O)=O)cc12 [Compound 22, N-[5-(1,1-dioxo-1λ^6-isothiazolidin-2-yl)-1H-indazol-3-yl]ethanethioamide]"
4,< 100000,"CC(=NO)Nc1n[nH]c2ccc(N3CCCS3(=O)=O)cc12 [Compound 23, N-[5-(1,1-dioxo-1λ^6-isothiazolidin-2-yl)-1H-indazol-3-yl]-N′-hydroxyethaneimidoamide]"
5,< 50,"O=C(Cc1ccc(Cl)c(Cl)c1)Nc1n[nH]c2ccc(N3CCCS3(=O)=O)cc12 [Compound 24, 2-(3,4-dichlorophenyl)-N-[5-(1,1-dioxo-1λ^6-isothiazolidin-2-yl)-1H-indazol-3-yl]acetamide]"
6,< 1000,"O=C(CCc1ccccc1)Nc1n[nH]c2ccc(N3CCCS3(=O)=O)cc12 [Compound 25, N-[5-(1,1-dioxo-1λ^6-isothiazolidin-2-yl)-1H-indazol-3-yl]-3-phenylpropanamide]"
7,< 50,"CC(C)c1ccc(CC(=O)Nc2n[nH]c3ccc(N4CCCS4(=O)=O)cc23)cc1 [Compound 26, N-[5-(1,1-dioxo-1λ^6-isothiazolidin-2-yl)-1H-indazol-3-yl]-2-(4-isopropylphenyl)acetamide]"
8,< 50,"Cc1cccc(CC(=O)Nc2n[nH]c3ccc(N4CCCS4(=O)=O)cc23)c1 [Compound 27, N-[5-(1,1-dioxo-1λ^6-isothiazolidin-2-yl)-1H-indazol-3-yl]-2-(3-methylphenyl)acetamide]"
9,< 50,"Cc1ccc(CC(=O)Nc2n[nH]c3ccc(N4CCCS4(=O)=O)cc23)cc1 [Compound 28, N-[5-(1,1-dioxo-1λ^6-isothiazolidin-2-yl)-1H-indazol-3-yl]-2-(4-methylphenyl)acetamide]"
10,< 50,"CS(=O)(=O)c1ccc(CC(=O)Nc2n[nH]c3ccc(N4CCCS4(=O)=O)cc23)cc1 [Compound 29, N-[5-(1,1-dioxo-1λ^6-isothiazolidin-2-yl)-1H-indazol-3-yl]-2-[4-(methylsulfonyl)phenyl]acetamide]"
11,< 10000,"CN1CCN(CC(=O)Nc2n[nH]c3ccc(N4CCCS4(=O)=O)cc23)CC1 [Compound 30, N-[5-(1,1-dioxo-1λ^6-isothiazolidin-2-yl)-1H-indazol-3-yl]-2-(4-methyl-1-piperazinyl)acetamide]"
12,< 10000,"O=C(CN1CCOCC1)Nc1n[nH]c2ccc(N3CCCS3(=O)=O)cc12 [Compound 31, N-[5-(1,1-dioxo-1λ^6-isothiazolidin-2-yl)-1H-indazol-3-yl]-2-(4-morpholinyl)acetamide]"
13,< 10000,"O=C(CN1CCCCC1)Nc1n[nH]c2ccc(N3CCCS3(=O)=O)cc12 [Compound 32, N-[5-(1,1-dioxo-1λ^6-isothiazolidin-2-yl)-1H-indazol-3-yl]-2-(1-piperidinyl)acetamide]"
14,< 50,"O=C(Cc1ccc(-c2ccncc2)cc1)Nc1n[nH]c2ccc(N3CCCS3(=O)=O)cc12 [Compound 33, N-[5-(1,1-dioxo-1λ^6-isothiazolidin-2-yl)-1H-indazol-3-yl]-2-[4-(4-pyridinyl)phenyl]acetamide]"
15,< 100,"O=C(Cc1ccc(N2CCOCC2)cc1)Nc1n[nH]c2ccc(N3CCCS3(=O)=O)cc12 [Compound 35, N-[5-(1,1-dioxo-1λ^6-isothiazolidin-2-yl)-1H-indazol-3-yl]-2-[4-(1-morpholinyl)phenyl]acetamide]"
16,< 50,"O=C(Cc1ccc(-c2ccsc2)cc1)Nc1n[nH]c2ccc(N3CCCS3(=O)=O)cc12 [Compound 36, N-[5-(1,1-dioxo-1λ^6-isothiazolidin-2-yl)-1H-indazol-3-yl]-2-[4-(3-thienyl)phenyl]acetamide]"
17,< 100,"O=C(Cc1ccc(S(=O)(=O)N2CCOCC2)cc1)Nc1n[nH]c2ccc(N3CCCS3(=O)=O)cc12 [Compound 37, N-[5-(1,1-dioxo-1λ^6-isothiazolidin-2-yl)-1H-indazol-3-yl]-2-[4-(4-morpholinylsulfonyl)phenyl]acetamide]"
18,< 100,"COc1ccc(CC(=O)Nc2n[nH]c3ccc(N4CCCS4(=O)=O)cc23)cc1 [Compound 38, N-[5-(1,1-dioxo-1λ^6-isothiazolidin-2-yl)-1H-indazol-3-yl]-2-(4-methoxyphenyl)acetamide]"
19,< 50,"O=C(Cc1ccc(-c2ccco2)cc1)Nc1n[nH]c2ccc(N3CCCS3(=O)=O)cc12 [Compound 39, N-[5-(1,1-dioxo-1λ^6-isothiazolidin-2-yl)-1H-indazol-3-yl]-2-[4-(2-furyl)phenyl]acetamide]"
